Experiments:
[1] = system: acute HIV infection of T-lymphoid cells; assay: Inhibition of acute HIV infection of T-lymphoid cells (spread assay); assay type: cell-based; conditions: Human immunodeficiency virus 1
Procedure: An assay for the inhibition of acute HIV infection of T-lymphoid cells (alternatively referred to herein as the “spread assay”) was conducted in accordance with Vacca, J. P. et al., Proc. Natl. Acad. Sci. USA 1994, 91: 4096.

[2] = system: acute HIV infection with HeLa P4-2 cells; assay: Single cycle infectivity assay with HeLa P4-2 cells (vertical assay); assay type: cell-based; conditions: Human immunodeficiency virus 1, HeLaP4-2
Procedure: An assay for measuring the inhibition of acute HIV infection with HeLa P4-2 cells in a single cycle infectivity assay (alternatively referred to herein as the “vertical assay”) was conducted in accordance with Joyce, J. G. et al., J. Biol. Chem. 2002, 277: 45811, Hazuda, D. J. et al., Science, 2000, 287, 646, and Kimpton, J. et al, J. Virol. 1992, 66: 2232.

[3] = target: T1, recombinant integrase (HIV integrase) (Human immunodeficiency virus type 1 group M subtype B, UniProt P04585); assay: HIV integrase assay: strand transfer catalyzed by recombinant integrase; assay type: biochemical; conditions: assay per WO 02/30930, read-out: IC50, inhibition of strand transfer activity of integrase
T1 construct: Strand Transfer Catalyzed by Recombinant Integrase
Procedure: Assays for the strand transfer activity of integrase were conducted in accordance with WO 02/30930 for recombinant integrase.
Further description on conducting the assay using preassembled complexes is found in Wolfe, A. L. et al., J. Virol. 1996, 70: 1424-1432, Hazuda et al., J. Virol. 1997, 71: 7005-7011; Hazuda et al., Drug Design and Discovery 1997, 15: 17-24; and Hazuda et al., Science 2000, 287: 646-650.

SMILES | IC95 [1] [µM] | IC50 [2] [µM] | IC50 [3] [µM]
COC(=O)c1nn2c(c1O)C(=O)N(Cc1ccc(F)cc1)CC2 [Example 1, Methyl 5-(4-fluorobenzyl)-3-hydroxy-4-oxo-4,5,6,7-tetrahydropyrazolo[1,5-a]pyrazine-2-carboxylate] | > 10 | > 100 | 
CNC(=O)c1nn2c(c1O)C(=O)N(Cc1ccc(F)cc1)C(C)C2 (centres unmarked) [Example 6, 5-(4-Fluorobenzyl)-3-hydroxy-N-methyl-6-methyl-4-oxo-4,5,6,7-tetrahydropyrazolo[1,5-a]pyrazine-2-carboxamide] | > 10 | < 40 | 
CN1CCn2nc(C(=O)N3CCc4ccccc4C3)c(O)c2C1=O [Example 14, 3-Hydroxy-5-methyl-4-oxo-2-[(1,2,3,4-tetrahydro-isoquinolin-2-yl)carbonyl]-4,5,6,7-tetrahydropyrazolo[1,5-a]pyrazine] | > 10 |  | > 10
CN1CCn2nc(C(=O)N3CCCC3c3ccccc3)c(O)c2C1=O (centres unmarked) [Example 16, 3-Hydroxy-5-methyl-4-oxo-2-[(2-phenylpyrrolidin-1-yl)carbonyl]-4,5,6,7-tetrahydropyrazolo[1,5-a]pyrazine] | > 10 |  | > 10
CN(Cc1ccc2nccnc2c1)C(=O)c1nn2c(c1O)C(=O)N(C)CC2 [Example 17, 3-Hydroxy-5-methyl-4-oxo-2-{[quinoxalin-6-ylmethyl(methyl)amino]carbonyl}-4,5,6,7-tetrahydropyrazolo[1,5-a]pyrazine] | > 10 | < 40 | 
CN1CCn2nc(C(=O)N(CCO)Cc3ccccc3)c(O)c2C1=O [Example 18, 2-[Benzyl(2-hydroxyethyl)aminocarbonyl]-3-hydroxy-5-methyl-4-oxo-4,5,6,7-tetrahydropyrazolo[1,5-a]pyrazine] | > 10 | > 100 | 
CN(C)CCN(Cc1ccccc1)C(=O)c1nn2c(c1O)C(=O)N(C)CC2 [Example 19, 2-{Benzyl[2-(dimethylamino)ethyl]aminocarbonyl}-3-hydroxy-5-methyl-4-oxo-4,5,6,7-tetrahydropyrazolo[1,5-a]pyrazine] | > 10 | > 100 | > 10
O=C(NC1CCNCC1)c1nn2c(c1O)C(=O)N(Cc1ccc(F)cc1)CC2 [Example 25, 5-(4-Fluorobenzyl)-3-hydroxy-4-oxo-N-(4-piperidinyl)-4,5,6,7-tetrahydropyrazolo[1,5-a]pyrazine-2-carboxamide] | > 10 | < 40 | 
O=C(c1nn2c(c1O)C(=O)N(Cc1ccc(F)cc1)CC2)N1CCOCC1 [Example 28, 5-(4-Fluorobenzyl)-3-hydroxy-2-(morpholin-4-ylcarbonyl)-4-oxo-4,5,6,7-tetrahydropyrazolo[1,5-a]pyrazine] | > 10 | < 40 | 
CN1CC(c2cccc(Br)c2)n2nc(C(=O)NCc3ccc(F)cc3)c(O)c2C1=O (centres unmarked) [Example 43, 7-(3-Bromophenyl)-N-(4-fluorobenzyl)-3-hydroxy-5-methyl-4-oxo-4,5,6,7-tetrahydropyrazolo[1,5-a]pyrazine-2-carboxamide] | ≤ 10 |  | 
CN1CC(c2cccc(C#N)c2)n2nc(C(=O)NCc3ccc(F)cc3)c(O)c2C1=O (centres unmarked) [Example 44, 7-(3-Cyanophenyl)-N-(4-fluorobenzyl)-3-hydroxy-5-methyl-4-oxo-4,5,6,7-tetrahydropyrazolo[5,5-a]pyrazine-2-carboxamide] | ≤ 10 |  | 
CN1CC(c2ccncc2)n2nc(C(=O)NCc3ccc(F)cc3)c(O)c2C1=O (centres unmarked) [Example 45, N-(4-Fluorobenzyl)-3-hydroxy-5-methyl-4-oxo-7-pyridin-4-yl-4,5,6,7-tetrahydropyrazolo[1,5-a]pyrazine-2-carboxamide] | ≤ 10 |  | 
CN1CC(c2ccncc2)n2nc(C(=O)NCc3ccc(F)c(Cl)c3)c(O)c2C1=O (centres unmarked) [Example 46, N-(3-Chloro-4-fluorobenzyl)-3-hydroxy-5-methyl-4-oxo-7-pyridin-4-yl-4,5,6,7-tetrahydropyrazolo[1,5-a]pyrazine-2-carboxamide] | ≤ 10 |  | 
CNC(=O)c1cc(F)ccc1CNC(=O)c1nn2c(c1O)C(=O)N(C)CC2c1ccccn1 (centres unmarked) [Example 47, N-{4-Fluoro-2-[(methylamino)carbonyl]benzyl}-3-hydroxy-5-methyl-4-oxo-7-pyridin-2-yl-4,5,6,7-tetrahydropyrazolo[1,5-a]pyrazine-2-carboxamide] | ≤ 10 |  | 
CC(C)C1CN(C)C(=O)c2c(O)c(C(=O)NCc3ccc(F)cc3)nn21 (centres unmarked) [Example 48, N-(4-Fluorobenzyl)-3-hydroxy-7-isopropyl-5-methyl-4-oxo-4,5,6,7-tetrahydropyrazolo[1,5-a]pyrazine-2-carboxamide] | ≤ 10 |  | 
CNC(=O)c1cc(F)ccc1CNC(=O)c1nn2c(c1O)C(=O)N(C)CC2C(C)C (centres unmarked) [Example 49, N-{4-Fluoro-2-[(methylamino)carbonyl]benzyl}-3-hydroxy-7-isopropyl-5-methyl-4-oxo-4,5,6,7-tetrahydropyrazolo[1,5-a]pyrazine-2-carboxamide] | ≤ 10 |  | 
